We go through twelve molecules from patent US20250109140A1, “5-[5-(PIPERIDIN-4-YL)THIENO[3,2-C]PYRAZOL-2-YL]INDAZOLE DERIVATIVES AND RELATED COMPOUNDS AS MODULATORS FOR SPLICING NUCLEIC ACIDS AND FOR THE TREATMENT OF PROLIFERATIVE DISEASES” (REMIX THERAPUTICS INC., priority 2022, published 2025).

For test [1], the system named is HTT mRNA. Kind of test: Splicing RT-qPCR assay, HTT canonical (CJ) and alternative (AJ) junction mRNA. It counts as cell-based. The following applies: Homo sapiens; for EC50: AC50 = 50% response in AJ mRNA increase. In outline:
(§1)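 A673 or K562 cells were exposed for 24 h at 37 °C to an 11-point 3-fold dilution series (top 10 uM final, DMSO ≤0.25%). Lysates were analysed by one-step RT-qPCR for canonical (CJ) and alternative (AJ) junctions. Values were normalized to GAPDH, GUSB or PPIA and to DMSO (ΔΔCt), then converted to percentage response.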

Test [2] has as its system MYB mRNA. Kind of test: Splicing RT-qPCR assay, MYB canonical (CJ) and alternative (AJ) junction mRNA. The following applies: Homo sapiens; for EC50: AC50 = 50% response in AJ mRNA increase. It counts as cell-based. In outline: as §1
Test [3] deals with SMN2 mRNA. Briefly: Splicing RT-qPCR gene panel, SMN2 canonical junction (CJ) mRNA. It counts as cell-based. The following applies: Homo sapiens; Table 8; larger gene panel, decrease in CJ mRNA levels. In outline: as §1
The subject of test [4] is Target C mRNA. Kind of test: Splicing RT-qPCR gene panel, Target C canonical junction (CJ) mRNA. The following applies: Homo sapiens; Table 8; larger gene panel, decrease in CJ mRNA levels. It counts as cell-based. In outline: as §1
The subject of test [5] is HiBiT-tagged MYB protein. Briefly: HiBiT protein abundance assay, MYB (K562 HiBiT knock-in cells). It counts as cell-based, human. The following applies: 24 hours treatment. In outline:
(§2)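 K562 cells carrying endogenous HiBiT-tagged targets were treated 24 h at 37 °C with 10-point 3-fold dilutions from 10 µM final (≤0.25% DMSO). Abundance read by lytic HiBiT luminescence, normalized to DMSO and unmodified-K562 controls; IC50 is the 4-parameter-fit concentration giving 50% of untreated signal.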

For test [6], the system named is HiBiT-tagged HTT protein. Briefly: HiBiT protein abundance assay, HTT (K562 HiBiT knock-in cells). It counts as cell-based, human. To be noted: 24 hours treatment. In outline: as §2
Test [7] relates to K562 (human chronic myelogenous leukemia) cells. Kind of test: Cell viability, Cell Titer Glo 2.0 assay, K562 cells. It counts as cell-based. To be noted: 72 hours. Summed up:
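K562 cells seeded at 500 cells/well in IMDM + 10% FBS; compounds serially diluted in DMSO, then 1:100 in medium (final DMSO 0.1%). Incubated 72 h at 37° C, 5% CO2; viability read by Cell Titer Glo 2.0 luminescence against medium-only blank.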

Test [8] has as its system Target C. Kind of test: HiBiT protein abundance assay, Target C (K562 HiBiT knock-in cells). It counts as cell-based, human. The following applies: 24 hours treatment. In outline: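 K562 HiBiT knock-in cells (10000/well) were treated 24 h at 37 °C with a 10-point 3-fold dilution series, top final concentration […], DMSO ≤0.25%. Target abundance was read by lytic HiBiT luminescence and normalized to unmodified K562 and DMSO controls. A four-parameter fit gave the concentration giving 50% of untreated abundance.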

The mark [9] stands for this setting: Table 7, RT-qPCR, A673 or K562 cells, 24 hours treatment.
Setting [10] is: Table 7, IC50 = 50% response in CJ mRNA decrease, RT-qPCR, A673 or K562 cells, 24 hours treatment, read-out: HTT CJ.
The mark [11] stands for this setting: Table 8, larger gene panel, decrease in CJ mRNA levels, read-out: HTT CJ IC50.
Where [12] appears, read: Table 7, IC50 = 50% response in CJ mRNA decrease, RT-qPCR, A673 or K562 cells, 24 hours treatment, read-out: MYB CJ.
[13] abbreviates: Table 8, larger gene panel, decrease in CJ mRNA levels, read-out: MYB CJ IC50.

The structures appear in SMILES notation. Structures can show the parent of a compound that is named as a salt. Where two headings read alike, the source gives them in different places.

In the case of `Cn1cc2cc(-c3cc4cn([C@@H]5CCNC[C@H]5F)nc4s3)cc(F)c2n1` [Compound 187], the EC50 in test [1] (setting [9]) was less than 0.1 µM; in test [2] (setting [9]) it was 0.1 to 1 µM. The IC50 in test [1] (setting [10]) was less than 0.1 µM; in test [1] (setting [11]), less than 0.1 µM; in test [2] (setting [12]), 0.1 to 1 µM; in test [2] (setting [13]) it was 0.1 to 1 µM; in test [3], less than 0.1 µM; in test [4], 0.1 to 1 µM. Besides, the IC50 is 0.1 to 1 µM in test [5], less than 0.1 µM in test [6], 1 to 10 µM in test [7] and 0.1 to 1 µM in test [8].
With `Cc1cn2nc(-n3cc4sc(N5CC6(CN(C)C6)C5)cc4n3)cc(C)c2n1` [Compound 188, 2-(2-{2,8-dimethylimidazo[1,2-b]pyridazin-6-yl}thieno [3,2-c]pyrazol-5-yl)-6-methyl-2,6-diazaspiro [3.3]heptane], the EC50 in test [1] (setting [9]) and in test [2] (setting [9]) was 1 to 10 µM each time. For the same molecule, the IC50 is 0.1 to 1 µM in test [1] (setting [10]); 1 to 10 µM in test [1] (setting [11]); 1 to 10 µM in test [2] (setting [12]); 1 to 10 µM in test [2] (setting [13]); 0.1 to 1 µM in test [3]; 1 to 10 µM in test [4]. The IC50 in test [5], in test [6], in test [7] and in test [8] was 1 to 10 µM each time.
Regarding `Cc1cn2nc(-n3cc4sc(N5CCC(NC(C)(C)C)C5)cc4n3)cc(C)c2n1` (stereo not drawn) [Compound 189, N-tert-butyl-1-(2-{2,8-dimethylimidazo[1,2-b]pyridazin-6-yl}thieno[3,2-c]pyrazol-5-yl) pyrrolidin-3-amine], the EC50 in test [1] (setting [9]) and in test [2] (setting [9]) was greater than 10 µM in each case. Besides, the IC50 in test [1] (setting [10]) is greater than 10 µM; in test [1] (setting [11]) it was greater than 10 µM; in test [2] (setting [12]), greater than 10 µM; in test [2] (setting [13]), greater than 10 µM; in test [3], 1 to 10 µM; in test [4] it was greater than 10 µM. Also, the IC50 in test [5] was greater than 10 µM; in test [6] it was greater than 10 µM; in test [7], 1 to 10 µM; in test [8], greater than 10 µM.
`Cn1cc2cc(-c3cc4cn([C@H]5CCNC[C@@H]5F)nc4s3)cc(F)c2n1` [Compound 190]: the EC50 in test [1] (setting [9]) and in test [2] (setting [9]) was 0.1 to 1 µM in each case. For the same molecule, the IC50 in test [1] (setting [10]) was less than 0.1 µM; in test [1] (setting [11]), 0.1 to 1 µM; in test [2] (setting [12]), 0.1 to 1 µM; in test [2] (setting [13]), 0.1 to 1 µM; in test [3], less than 0.1 µM; in test [4], 0.1 to 1 µM. The IC50 is 1 to 10 µM in test [5], 0.1 to 1 µM in test [6], 1 to 10 µM in test [7] and 1 to 10 µM in test [8].
Regarding `Cn1cc2cc(-c3cc4cn(C5CCNCC5)nc4s3)ccc2n1` [Compound 207], the figures for the EC50 in test [1] (setting [9]) and in test [2] (setting [9]) were 0.1 to 1 µM and 1 to 10 µM, respectively. Also, the IC50 was 0.1 to 1 µM in test [1] (setting [10]); 0.1 to 1 µM in test [1] (setting [11]); 1 to 10 µM in test [2] (setting [12]); 1 to 10 µM in test [2] (setting [13]); less than 0.1 µM in test [3]; 1 to 10 µM in test [4]. Further, the IC50 was 1 to 10 µM in test [5], less than 0.1 µM in test [6], 1 to 10 µM in test [7] and 0.1 to 1 µM in test [8].
On to `Cn1cc2cc(-c3cc4cn(C5CCNCC5)nc4s3)c(F)cc2n1` [Compound 210], for which the EC50 was less than 0.1 µM in test [1] (setting [9]) and 0.1 to 1 µM in test [2] (setting [9]). The IC50 in test [1] (setting [10]) was less than 0.1 µM; in test [1] (setting [11]), less than 0.1 µM; in test [2] (setting [12]), 0.1 to 1 µM; in test [2] (setting [13]), 0.1 to 1 µM; in test [3], less than 0.1 µM; in test [4], 0.1 to 1 µM. The IC50 in test [5] is 0.1 to 1 µM; in test [6], less than 0.1 µM; in test [7], 0.1 to 1 µM; in test [8], 0.1 to 1 µM.
For `Cn1cc2cc(-c3cc4cn(C5CCNCC5)nc4s3)c(C#N)cc2n1` [Compound 211], the EC50 in test [1] (setting [9]) and in test [2] (setting [9]) was 1 to 10 µM each time. For the same molecule, the IC50 was 1 to 10 µM in test [1] (setting [10]); 1 to 10 µM in test [1] (setting [11]); 1 to 10 µM in test [2] (setting [12]); 1 to 10 µM in test [2] (setting [13]); 0.1 to 1 µM in test [3]; 1 to 10 µM in test [4]. For the same molecule, the IC50 lay in the range of 1 to 10 µM in test [5], 0.1 to 1 µM in test [6], 1 to 10 µM in test [7] and 1 to 10 µM in test [8].
With `Cc1cn2nc(-c3cc4cn(C5CCNCC5)nc4s3)c(O)c2c(C)n1` [Compound 213, 4,6-dimethyl-2-[2-(piperidin-4-yl)thieno[2,3-c]pyrazol-5-yl]pyrazolo[1,5-a]pyrazin-3-ol hydrochloride], the EC50 in test [1] (setting [9]) and in test [2] (setting [9]) was 1 to 10 µM each time. In addition, the IC50 in test [1] (setting [10]) was 1 to 10 µM; in test [1] (setting [11]), 1 to 10 µM; in test [2] (setting [12]), greater than 10 µM; in test [2] (setting [13]), 1 to 10 µM; in test [3] it was 1 to 10 µM; in test [4] it was greater than 10 µM. Further, the IC50 in test [5] was greater than 10 µM; in test [6] it was greater than 10 µM; in test [7], 1 to 10 µM; in test [8] it was greater than 10 µM.
Regarding `Cn1cc2cc(-c3cc4cn(C5CCNCC5)nc4s3)ncc2n1` [Compound 214], the EC50 in test [1] (setting [9]) lay in the range of 0.1 to 1 µM; in test [2] (setting [9]), 1 to 10 µM. Further, the IC50 was 1 to 10 µM in test [1] (setting [10]); 0.1 to 1 µM in test [1] (setting [11]); 1 to 10 µM in test [2] (setting [12]); 1 to 10 µM in test [2] (setting [13]); 0.1 to 1 µM in test [3]; 1 to 10 µM in test [4]. The IC50 in test [5], in test [6], in test [7] and in test [8] was 1 to 10 µM each time.
Regarding `Cn1cc2cc(-c3cc4cn(C5CCNCC5)nc4s3)c(O)c(F)c2n1` [Compound 215], the EC50 in test [1] (setting [9]) and in test [2] (setting [9]) was 0.1 to 1 µM in each case. In addition, the IC50 is 0.1 to 1 µM in test [1] (setting [10]); 0.1 to 1 µM in test [1] (setting [11]); 1 to 10 µM in test [2] (setting [12]); 0.1 to 1 µM in test [2] (setting [13]); less than 0.1 µM in test [3]; 0.1 to 1 µM in test [4]. Further, the IC50 in test [5] lay in the range of 1 to 10 µM; in test [6], 0.1 to 1 µM; in test [7], 1 to 10 µM; in test [8], 1 to 10 µM.
`Cc1cn2cc(-c3cc4cn(C5CCNCC5)nc4s3)cc(C)c2n1` [Compound 216]: the EC50 in test [1] (setting [9]) is less than 0.1 µM; in test [2] (setting [9]) it was 0.1 to 1 µM. The IC50 is less than 0.1 µM in test [1] (setting [10]); less than 0.1 µM in test [1] (setting [11]); 0.1 to 1 µM in test [2] (setting [12]); 0.1 to 1 µM in test [2] (setting [13]); less than 0.1 µM in test [3]; 0.1 to 1 µM in test [4]. Besides, the IC50 in test [5] was 0.1 to 1 µM; in test [6] it was less than 0.1 µM; in test [7], 0.1 to 1 µM; in test [8] it was less than 0.1 µM.
On to `COc1c(-c2cc3cn(C4CCNCC4)nc3s2)cc2cn(C)nc2c1F` [Compound 218], for which the EC50 in test [1] (setting [9]) and in test [2] (setting [9]) was 0.1 to 1 µM throughout. Also, the IC50 in test [1] (setting [10]) was less than 0.1 µM; in test [1] (setting [11]), 0.1 to 1 µM; in test [2] (setting [12]), 0.1 to 1 µM; in test [2] (setting [13]), 0.1 to 1 µM; in test [3] it was less than 0.1 µM; in test [4] it was 0.1 to 1 µM. The IC50 is 0.1 to 1 µM in test [5], less than 0.1 µM in test [6], 0.1 to 1 µM in test [7] and 0.1 to 1 µM in test [8].
